Where two headings read alike, the source gives them in different places.
Key:
HIV-1 IN (3′-P) = HIV-1 IN (3′-P) (Human immunodeficiency virus type 1 group M subtype B, UniProt P04585); experiment: HIV-1 IN gel-based assay, 3′-processing; type: biochemical
HIV-1 RT RNase H = HIV-1 RT RNase H (Human immunodeficiency virus type 1 group M subtype B, UniProt P04585); experiment: HIV-1 RT RNase H inhibition; type: biochemical
HIV-1 IN (ST) = HIV-1 IN (ST) (Human immunodeficiency virus type 1 group M subtype B, UniProt P04585); experiment: HIV-1 IN gel-based assay, strand transfer; type: biochemical

Row | SMILES | SI = CC50/EC50 (HIV-1(IIIB); Table 1) | IC50 (HIV-1 IN (3′-P)) [µM] | further results
1 | CCOC(=O)/C(O)=C/C(=O)c1cn(Cc2ccccc2)c2ccccc2c1=O [10a, 4-[1-Phenylmethyl-4(1H)-quinolinon-3-yl]-2-hydroxy-4-oxo-2-butenoic Acid Ethyl Ester] | >50 | > 1000 | 
2 | CCOC(=O)/C(O)=C/C(=O)c1cn(Cc2ccc3ccccc3n2)c2ccccc2c1=O [10aa, 2-Hydroxy-4-oxo-4-(4-oxo-1-(quinolin-2-ylmethyl)-1,4-dihydroquinolin-3-yl)but-2-enoic Acid Ethyl Ester] |  | > 1000 | 
3 | CCOC(=O)/C(O)=C/C(=O)c1cn(Cc2ccccc2F)c2ccccc2c1=O [10b, 4-[1-(2-Fluorophenyl)methyl-4(1H)-quinolinon-3-yl]-2-hydroxy-4-oxo-2-butenoic Acid Ethyl Ester] | >33.4 |  | 
4 | CCOC(=O)/C(O)=C/C(=O)c1cn(Cc2ccccc2OC)c2ccccc2c1=O [10c, 4-[1-(2-Methoxyphenyl)methyl-4(1H)-quinolinon-3-yl]-2-hydroxy-4-oxo-2-butenoic Acid Ethyl Ester] | >19.2 | > 333 | 
5 | CCOC(=O)/C(O)=C/C(=O)c1cn(Cc2cccc(F)c2)c2ccccc2c1=O [10d, 4-[1-(3-Fluorophenyl)methyl-4(1H)-quinolinon-3-yl]-2-hydroxy-4-oxo-2-butenoic Acid Ethyl Ester] | >29.4 | > 12.3 | 
6 | CCOC(=O)/C(O)=C/C(=O)c1cn(Cc2cccc(OC)c2)c2ccccc2c1=O [10e, 4-[1-(3-Methoxyphenyl)methyl-4(1H)-quinolinon-3-yl]-2-hydroxy-4-oxo-2-butenoic Acid Ethyl Ester] |  | > 333 | 
7 | CCOC(=O)/C(O)=C/C(=O)c1cn(Cc2ccc(O)cc2)c2ccccc2c1=O [10g, 4-[1-(4-Hydroxyphenyl)methyl-4(1H)-quinolinon-3-yl]-2-hydroxy-4-oxo-2-butenoic Acid Ethyl Ester] | >1.6 | > 333 | 
8 | CCOC(=O)/C(O)=C/C(=O)c1cn(Cc2ccc(F)cc2F)c2ccccc2c1=O [10j, 4-[1-(2,4-Difluorophenyl)methyl-4(1H)-quinolinon-3-yl]-2-hydroxy-4-oxo-2-butenoic Acid Ethyl Ester] | >86.2 |  | selectivity index (SI) (HIV-1(IIIB)): > 86.2
9 | CCOC(=O)/C(O)=C/C(=O)c1cn(Cc2c(F)cccc2F)c2ccccc2c1=O [10l, 4-[1-(2,6-Difluorophenyl)methyl-4(1H)-quinolinon-3-yl]-2-hydroxy-4-oxo-2-butenoic Acid Ethyl Ester] | >250 | > 12.3 | selectivity index (SI) (HIV-1(IIIB)): > 250
10 | CCOC(=O)/C(O)=C/C(=O)c1cn(Cc2ccc(F)c(F)c2)c2ccccc2c1=O [10m, 4-[1-(3,4-Difluorophenyl)methyl-4(1H)-quinolinon-3-yl]-2-hydroxy-4-oxo-2-butenoic Acid Ethyl Ester] | >5.1 |  | 
11 | CCOC(=O)/C(O)=C/C(=O)c1cn(Cc2cc(F)cc(F)c2)c2ccccc2c1=O [10n, 4-[1-(3,5-Difluorophenyl)methyl-4(1H)-quinolinon-3-yl]-2-hydroxy-4-oxo-2-butenoic Acid Ethyl Ester] | >1.5 |  | 
12 | CCOC(=O)/C(O)=C/C(=O)c1cn(Cc2c(Cl)cccc2Cl)c2ccccc2c1=O [10p, 4-[1-(2,6-Dichlorophenyl)methyl-4(1H)-quinolinon-3-yl]-2-hydroxy-4-oxo-2-butenoic Acid Ethyl Ester] | >1.7 |  | IC50 (HIV-1 RT RNase H; RNase H IC50, Table 1): > 50 µM
13 | CCOC(=O)/C(O)=C/C(=O)c1cn(Cc2cccc(Cl)c2F)c2ccccc2c1=O [10s, 4-[1-(3-Chloro-2-fluorophenyl)methyl-4(1H)-quinolinon-3-yl]-2-hydroxy-4-oxo-2-butenoic Acid Ethyl Ester] | >5 |  | 
14 | CCOC(=O)/C(O)=C/C(=O)c1cn(Cc2ccc(F)c(Cl)c2)c2ccccc2c1=O [10t, 4-[1-(3-Chloro-4-fluorophenyl)methyl-4(1H)-quinolinon-3-yl]-2-hydroxy-4-oxo-2-butenoic Acid Ethyl Ester] | >2.9 |  | 
15 | CCOC(=O)/C(O)=C/C(=O)c1cn(Cc2ccc(F)c(Cl)c2)c2c(Cl)cccc2c1=O [10u, 8-Chloro-4-[1-(3-chloro-4-fluorophenyl)methyl-4(1H)-quinolinon-3-yl]-2-hydroxy-4-oxo-2-butenoic Acid Ethyl Ester] |  | > 333 | 
16 | CCOC(=O)/C(O)=C/C(=O)c1cn(Cc2ccccc2F)c2cc(Cl)ccc2c1=O [10w, 4-[7-Chloro-1-(2-fluorophenyl)methyl-4(1H)-quinolinon-3-yl]-2-hydroxy-4-oxo-2-butenoic Acid Ethyl Ester] | >4.5 |  | 
17 | CCOC(=O)/C(O)=C/C(=O)c1cn(CCCCc2ccccc2)c2ccccc2c1=O [10x, 2-Hydroxy-4-oxo-4-(4-oxo-1-(4-phenylbutyl)-1,4-dihydroquinolin-3-yl)but-2-enoic Acid Ethyl Ester] |  | > 333 | 
18 | CCOC(=O)/C(O)=C/C(=O)c1cn(Cc2ccc3ccccc3c2)c2ccccc2c1=O [10y, 2-Hydroxy-4-(1-(naphthalen-2-ylmethyl)-4-oxo-1,4-dihydroquinolin-3-yl)-4-oxobut-2-enoic Acid Ethyl Ester] |  | > 333 | 

Row | SMILES | SI = CC50/EC50 (HIV-1(IIIB); Table 1) | IC50 (HIV-1 IN (3′-P)) [µM] | further results
19 | CCOC(=O)/C(O)=C/C(=O)c1cn(Cc2ccncc2)c2ccccc2c1=O [10z, 2-Hydroxy-4-oxo-4-(4-oxo-1-(pyridin-4-ylmethyl)-1,4-dihydroquinolin-3-yl)but-2-enoic Acid Ethyl Ester] |  | > 333 | 
20 | O=C(O)/C(O)=C/C(=O)c1cn(Cc2ccccc2F)c2ccccc2c1=O [11b, 4-[1-(2-Fluorophenyl)methyl-4(1H)-quinolinon-3-yl]-2-hydroxy-4-oxo-2-butenoic Acid] | >19.2 |  | IC50 (HIV-1 RT RNase H; RNase H IC50, Table 1): > 50 µM
21 | COc1ccccc1Cn1cc(C(=O)/C=C(\O)C(=O)O)c(=O)c2ccccc21 [11c, 4-[1-(2-Methoxyphenyl)methyl-4(1H)-quinolinon-3-yl]-2-hydroxy-4-oxo-2-butenoic Acid] | >5.4 | > 4.1 | 
22 | O=C(O)/C(O)=C/C(=O)c1cn(Cc2cccc(F)c2)c2ccccc2c1=O [11d, 4-[1-(3-Fluorophenyl)methyl-4(1H)-quinolinon-3-yl]-2-hydroxy-4-oxo-2-butenoic Acid] | >1.8 |  | 
23 | COc1cccc(Cn2cc(C(=O)/C=C(\O)C(=O)O)c(=O)c3ccccc32)c1 [11e, 4-[1-(3-Methoxyphenyl)methyl-4(1H)-quinolinon-3-yl]-2-hydroxy-4-oxo-2-butenoic Acid] |  | > 4.1 | 
24 | O=C(O)/C(O)=C/C(=O)c1cn(Cc2ccc(Cl)cc2)c2ccccc2c1=O [11f, 4-[1-(4-Chlorophenyl)methyl-4(1H)-quinolinon-3-yl]-2-hydroxy-4-oxo-2-butenoic Acid] | >57.5 |  | IC50 (HIV-1 RT RNase H; RNase H IC50, Table 1): > 50 µM; selectivity index (SI) (HIV-1(IIIB)): > 57.5
25 | O=C(O)/C(O)=C/C(=O)c1cn(Cc2ccc(O)cc2)c2ccccc2c1=O [11g, 4-[1-(4-Hydroxyphenyl)methyl-4(1H)-quinolinon-3-yl]-2-hydroxy-4-oxo-2-butenoic Acid] |  | > 37 | IC50 (HIV-1 RT RNase H; RNase H IC50, text): ~10 µM
26 | COc1ccc(Cn2cc(C(=O)/C=C(\O)C(=O)O)c(=O)c3ccccc32)cc1 [11h, 4-[1-(4-Methoxyphenyl)methyl-4(1H)-quinolinon-3-yl]-2-hydroxy-4-oxo-2-butenoic Acid] |  |  | IC50 (HIV-1 RT RNase H; RNase H IC50, Table 1): > 50 µM
27 | O=C(O)/C(O)=C/C(=O)c1cn(Cc2ccc(F)cc2F)c2ccccc2c1=O [11j, 4-[1-(2,4-Difluorophenyl)methyl-4(1H)-quinolinon-3-yl]-2-hydroxy-4-oxo-2-butenoic Acid] | >3.6 |  | 
28 | O=C(O)/C(O)=C/C(=O)c1cn(Cc2cc(F)ccc2F)c2ccccc2c1=O [11k, 4-[1-(2,5-Difluorophenyl)methyl-4(1H)-quinolinon-3-yl]-2-hydroxy-4-oxo-2-butenoic Acid] |  |  | IC50 (HIV-1 RT RNase H; RNase H IC50, Table 1): > 50 µM
29 | O=C(O)/C(O)=C/C(=O)c1cn(Cc2c(F)cccc2F)c2ccccc2c1=O [11l, 4-[1-(2,6-Difluorophenyl)methyl-4(1H)-quinolinon-3-yl]-2-hydroxy-4-oxo-2-butenoic Acid] | >6.2 |  | IC50 (HIV-1 RT RNase H; RNase H IC50, text): ~10 µM
30 | O=C(O)/C(O)=C/C(=O)c1cn(Cc2ccc(F)c(F)c2)c2ccccc2c1=O [11m, 4-[1-(3,4-Difluorophenyl)methyl-4(1H)-quinolinon-3-yl]-2-hydroxy-4-oxo-2-butenoic Acid] | >3.1 |  | IC50 (HIV-1 RT RNase H; RNase H IC50, Table 1): > 50 µM
31 | O=C(O)/C(O)=C/C(=O)c1cn(Cc2cc(F)cc(F)c2)c2ccccc2c1=O [11n, 4-[1-(3,5-Difluorophenyl)methyl-4(1H)-quinolinon-3-yl]-2-hydroxy-4-oxo-2-butenoic Acid] |  |  | IC50 (HIV-1 RT RNase H; RNase H IC50, Table 1): > 50 µM
32 | O=C(O)/C(O)=C/C(=O)c1cn(Cc2cccc(Cl)c2F)c2ccccc2c1=O [11s, 4-[1-(3-Chloro-2-fluorophenyl)methyl-4(1H)-quinolinon-3-yl]-2-hydroxy-4-oxo-2-butenoic Acid] | >2.1 |  | 
33 | O=C(O)/C(O)=C/C(=O)c1cn(Cc2ccccc2F)c2c(Cl)cccc2c1=O [11v, 8-Chloro-4-[1-(2-fluorophenyl)methyl-4(1H)-quinolinon-3-yl]-2-hydroxy-4-oxo-2-butenoic Acid] |  |  | IC50 (HIV-1 RT RNase H; RNase H IC50, Table 1): > 50 µM
34 | O=C(O)/C(O)=C/C(=O)c1cn(Cc2ccccc2F)c2cc(Cl)ccc2c1=O [11w, 4-[7-Chloro-1-(2-fluorophenyl)methyl-4(1H)-quinolinon-3-yl]-2-hydroxy-4-oxo-2-butenoic Acid] | >2.9 |  | 
35 | O=C(O)/C(O)=C/C(=O)c1cn(Cc2ccc3ccccc3c2)c2ccccc2c1=O [11y, 2-Hydroxy-4-(1-(naphthalen-2-ylmethyl)-4-oxo-1,4-dihydroquinolin-3-yl)-4-oxobut-2-enoic Acid] |  |  | SI = CC50/EC50 (HIV-1(IIIB); Table 2): >10.4; IC50 (HIV-1 IN (ST)): < 0.45 µM
36 | O=C(O)/C(O)=C/C(=O)c1cn(Cc2ccncc2)c2ccccc2c1=O [11z, 2-Hydroxy-4-oxo-4-(4-oxo-1-(pyridin-4-ylmethyl)-1,4-dihydroquinolin-3-yl)but-2-enoic Acid] |  | > 1000 | 
